This is an account of results in publication PMC9575003 (Pharmacology, biochemistry, and behavior, 2016).

One experiment has as its target dopamine D4 receptor (Homo sapiens, UniProt P21917). Description: Ki, apparently from the radioligand screening panel.
Experiment [1] deals with hNET (norepinephrine transporter) (Homo sapiens, UniProt P23975). Description: in vitro binding affinity.
Experiment [2] addresses hSERT (serotonin transporter) (Homo sapiens, UniProt P31645). In words: in vitro binding affinity.
The target in experiment [3] is hDAT (dopamine transporter) (Homo sapiens, UniProt Q01959). Description: in vitro binding affinity.
hDAT (dopamine transporter), sequence (Q01959 whole entry): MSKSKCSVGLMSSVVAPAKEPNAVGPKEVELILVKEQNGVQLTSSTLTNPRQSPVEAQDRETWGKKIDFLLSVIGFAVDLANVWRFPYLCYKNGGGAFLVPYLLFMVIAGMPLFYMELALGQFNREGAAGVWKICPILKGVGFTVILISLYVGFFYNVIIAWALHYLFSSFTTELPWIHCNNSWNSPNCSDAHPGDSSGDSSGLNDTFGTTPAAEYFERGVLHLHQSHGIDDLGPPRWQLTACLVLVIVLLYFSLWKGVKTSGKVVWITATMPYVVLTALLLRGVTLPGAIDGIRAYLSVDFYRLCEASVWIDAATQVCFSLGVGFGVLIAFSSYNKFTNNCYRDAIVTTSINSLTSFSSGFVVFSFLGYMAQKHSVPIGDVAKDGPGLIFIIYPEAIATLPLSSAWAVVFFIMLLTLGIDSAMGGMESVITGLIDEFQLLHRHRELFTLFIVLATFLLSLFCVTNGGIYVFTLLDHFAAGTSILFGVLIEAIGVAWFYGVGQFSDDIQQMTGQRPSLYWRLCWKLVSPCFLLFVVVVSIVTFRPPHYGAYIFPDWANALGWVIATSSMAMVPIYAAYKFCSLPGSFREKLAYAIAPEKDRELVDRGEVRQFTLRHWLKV

hNET (norepinephrine transporter), sequence (P23975 whole entry): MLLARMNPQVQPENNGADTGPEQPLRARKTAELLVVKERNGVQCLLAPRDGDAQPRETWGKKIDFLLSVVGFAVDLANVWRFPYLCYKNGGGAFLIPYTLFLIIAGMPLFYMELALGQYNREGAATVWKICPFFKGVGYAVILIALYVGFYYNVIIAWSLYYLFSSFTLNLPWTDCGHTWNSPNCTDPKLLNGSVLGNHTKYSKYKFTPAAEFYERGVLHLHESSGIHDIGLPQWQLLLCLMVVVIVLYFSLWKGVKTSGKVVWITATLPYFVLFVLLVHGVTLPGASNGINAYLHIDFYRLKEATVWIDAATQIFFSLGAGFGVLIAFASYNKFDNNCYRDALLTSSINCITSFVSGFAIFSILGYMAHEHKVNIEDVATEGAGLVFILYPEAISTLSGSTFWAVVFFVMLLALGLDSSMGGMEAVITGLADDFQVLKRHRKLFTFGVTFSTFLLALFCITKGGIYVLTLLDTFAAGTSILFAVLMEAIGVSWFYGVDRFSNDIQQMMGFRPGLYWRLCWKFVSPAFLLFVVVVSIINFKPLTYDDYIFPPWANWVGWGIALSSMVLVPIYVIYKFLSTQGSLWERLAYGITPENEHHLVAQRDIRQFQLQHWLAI
hSERT (serotonin transporter), sequence (P31645 whole entry): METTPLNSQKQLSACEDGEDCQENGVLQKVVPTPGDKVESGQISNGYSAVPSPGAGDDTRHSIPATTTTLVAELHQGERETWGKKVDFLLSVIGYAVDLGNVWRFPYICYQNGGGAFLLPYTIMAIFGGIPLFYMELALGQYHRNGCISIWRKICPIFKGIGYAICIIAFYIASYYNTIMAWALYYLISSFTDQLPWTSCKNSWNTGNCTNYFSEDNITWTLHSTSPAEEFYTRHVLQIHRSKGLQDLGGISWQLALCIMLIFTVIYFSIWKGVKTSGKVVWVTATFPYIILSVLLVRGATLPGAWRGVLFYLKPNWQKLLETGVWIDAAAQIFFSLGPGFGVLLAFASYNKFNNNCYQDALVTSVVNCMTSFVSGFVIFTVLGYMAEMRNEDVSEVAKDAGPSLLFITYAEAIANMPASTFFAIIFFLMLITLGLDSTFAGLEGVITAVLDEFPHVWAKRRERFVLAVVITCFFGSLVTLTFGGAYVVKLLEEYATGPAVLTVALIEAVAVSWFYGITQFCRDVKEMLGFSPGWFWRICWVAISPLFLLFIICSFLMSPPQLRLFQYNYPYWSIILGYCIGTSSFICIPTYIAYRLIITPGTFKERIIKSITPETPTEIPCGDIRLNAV
dopamine D4 receptor, sequence (P21917 whole entry): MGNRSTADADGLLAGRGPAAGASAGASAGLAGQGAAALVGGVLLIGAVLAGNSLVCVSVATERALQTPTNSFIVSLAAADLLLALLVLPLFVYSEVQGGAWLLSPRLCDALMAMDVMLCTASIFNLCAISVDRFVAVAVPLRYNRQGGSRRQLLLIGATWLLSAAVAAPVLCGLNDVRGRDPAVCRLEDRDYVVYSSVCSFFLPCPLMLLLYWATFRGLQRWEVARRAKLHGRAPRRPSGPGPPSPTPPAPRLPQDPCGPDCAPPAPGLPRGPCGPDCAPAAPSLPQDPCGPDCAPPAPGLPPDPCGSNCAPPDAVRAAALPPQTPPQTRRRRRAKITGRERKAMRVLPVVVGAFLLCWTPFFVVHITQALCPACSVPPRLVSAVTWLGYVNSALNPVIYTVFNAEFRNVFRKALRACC

Consider `C[C@@H](CN1CCC(Cc2ccccc2)CC1)C(O)c1ccc(O)cc1` (stereo partly shown) [MI-4, Ro-25-6981], for which the Ki on dopamine D4 receptor was found to be 120 nM; in experiment [1] it was 365 nM; in experiment [2] it was 670 nM; in experiment [3], 3460 nM.
